Data from PMC8706879 (Pharmaceuticals, 2021).
Like-named read-outs stand apart in the source and are kept apart here. Where a SMILES comes first, the peptide text is derived from it. Bridges are numbered along the chain shown (N, C = ends). [ ]: non-standard residue; d: D form. The star is where a group is joined. DOTA = O=C(O)CN1CCN(CC(=O)O)CCN(CC(=O)*)CCN(CC(=O)O)CC1; dPhe(4-NHCONH2) = NC(=O)Nc1ccc(C[C@@H](N)C(=O)O)cc1; Dihydroorotyl(S) = O=C1C[C@@H](C(=O)*)NC(=O)N1; Phe(4-Cl) = N[C@@H](Cc1ccc(Cl)cc1)C(=O)O; Phe(4-NH2) = Nc1ccc(C[C@H](N)C(=O)O)cc1

Legend:
[1] = system: HEK-SST2 cells; assay: Radioligand binding to and internalisation by intact HEK-SST2 cells; type: cell-based, human; settings: for cell surface bound fraction of total added radioligand / internalised fraction of total added radioligand: 4 h incubation at 37 °C, 2.5 nM
Protocol: The HEK-293 cell line expressing the T7-epitope tagged human SST2 (HEK-SST2) was provided by Prof. Stefan Schulz (Institute of Pharmacology and Toxicology, Jena University Hospital, Jena, Germany). HEK-SST2 cells were cultured at 37 °C and 5% CO2 in DMEM containing 10% FBS, 100 U/mL penicillin, 100 µg/mL streptomycin, […] L-glutamine, and 500 µg/mL geneticin (G-418).
(§1) In vitro assays on intact cells were performed with HEK-SST2 cells seeded in 6-well plates. The plates were pre-treated with a solution of 10% poly-lysine to promote cell attachment. HEK-SST2 cells (about 1 × 10^6 cells) were incubated in 1% (v/v) FBS containing medium at 37 °C/5% CO2 overnight. The day after, the cells were washed with medium, followed by incubation with the adjusted medium volume for 1 h prior starting the experiment.
(§2) In all assays, non-specific binding of [^177Lu]Lu-OPS201 was determined using 1000-fold excess of the unlabelled SST2 antagonist OPS202, also known as NODAGA-JR11, (where NODAGA is 1,4,7-triazacyclononane,1-glutaric acid-4,7-acetic acid). […] All reported values refer to specific binding (total minus non-specific binding). The radioactivity of all samples was measured in a gamma-counter (COBRA 5003, Packard Instruments). For all binding experiments with membranes, bound radioligand was separated from the one remaining in solution by rapid vacuum filtration, using an M-48 Brandel Cell Harvester (Alpha Biotech Ltd., Glasgow, UK). The filters were dried before being measured in the gamma-counter.
After 0.5, 1, 2 and 4 h (one plate per time point), the medium was removed, and the plated cells were quickly washed twice with ice-cold PBS. The cells were then treated twice for 5 min with ice-cold glycine solution (0.05 M, pH 2.8) to detach the cell surface-bound radioligand (acid releasable). Afterwards, the cells containing the internalised radioligand were detached with 1 M NaOH at 37 °C and collected for measurement. The amount of specific cell surface-bound and internalised radioligand is expressed as a percentage of the total applied activity after subtracting the non-specific values.

[2] = system: HEK-SST2 cells; assay: Sub-cellular redistribution of cell surface-bound radioligand at 37 °C; type: cell-based, human; parameters: reduction of initial surface-bound fraction: concentration or dose not given beside the values
Protocol: as §1, §2
The cell surface-bound internalisation and dissociation rates of [^177Lu]Lu-OPS201 were studied in HEK-SST2 cells seeded in 6-well plates (10^6 cells/well), which were first placed on ice for 30 min. The experiment was started by adding 2.5 nM [^177Lu]Lu-OPS201 to the medium, and the incubation was carried out at 4 °C for 2 h to prevent internalisation of the radioligand. Afterwards, the cells were washed with ice-cold PBS, and 1 mL/well of fresh pre-warmed (37 °C) medium was added. One plate was immediately treated with ice-cold glycine solution, and then the cells were detached with NaOH to determine the initial surface-bound and internalised fraction. The other plates were incubated at 37 °C for 10, 20, 30, 60, 120 or 240 min (one plate per time point) before the same treatment. At the specified time points, the amount of radioactivity, presented as cell surface-bound, internalised and in medium redistributed radioligand, was expressed in percentage of the cell-associated fraction (surface bound and internalised uptake) at the onset of the redistribution step as control. All reported values have been corrected for non-specific uptake.

[3] = system: HEK-SST2 cells; assay: Externalisation of [^177Lu]Lu-DOTA-TATE by intact cells; type: cell-based, human
Protocol: (§3) In vitro assays on intact cells were performed with HEK-SST2 cells seeded in 6-well plates. The plates were pre-treated with a solution of 10% poly-lysine to promote cell attachment. HEK-SST2 cells (about 1 × 10^6 cells) were incubated in 1% (v/v) FBS containing medium at 37 °C/5% CO2 overnight. The day after, the cells were washed with medium, followed by incubation with the adjusted medium volume for 1 h prior starting the experiment. […] The cells were afterwards incubated at 37 °C under the same three different conditions as above. […] At the end, the cells were treated with NaOH and collected for measurement. All reported values were also normalised as described above. In both aforementioned experiments, the 37 °C washout medium was repeatedly refreshed in an attempt to limit any re-equilibration between free and cell-associated radioligand and to reduce the accumulation (and thus the rebinding) of radioligand molecules when they were already dispersed in the bulk of the naïve medium. All data were fitted according to the one-phase exponential decay equation (GraphPad Software Inc., Prism 7).

[4] = target: T1, human SST2 (Homo sapiens, UniProt P30874); assay: Saturation binding on HEK-SST2 cell membranes
Protocol: (§4) To prepare cell membranes, HEK-SST2 cells were grown to confluence, mechanically disaggregated, washed with PBS (pH 7.4) and re-suspended in 20 mM of homogenisation Tris buffer (pH 7.5) containing 1.3 mM EDTA, 0.25 M sucrose, 0.7 mM bacitracin, 5 µM soybean trypsin inhibitor and 0.7 mM PMSF. The cells were homogenised using Ultra-Turrax, and the homogenised suspension was centrifuged at 500× g for 10 min at 4 °C. The supernatant was collected in centrifuge tubes (Beckman Coulter Inc., Brea, CA, USA). This procedure was then repeated 5 times. The collected supernatant was centrifuged in an ultra-centrifuge (Beckman) at 4 °C for 55 min at 20,000 rpm (approximately 49,000× g). Then, the pellet was re-suspended in 10 mM ice-cold HEPES buffer (pH 7.5), aliquoted, and stored at −80 °C. The protein concentration of those membrane suspensions was determined by the Bradford method, BSA as the standard.
as §2
The incubation was initiated by adding 30 μL of radioligand solution at 10 times the final concentration and 100 μL of cell membrane suspension to yield 10 μg of protein per well.

[5] = target: T1, human SST2; assay: biochemical
Protocol: as §4, §2
The dissociation of those radioligands was initiated by adding a 1000-fold excess of either unlabelled Lu-OPS201, Lu-DOTA-TATE, DOTA-BASS or lanreotide and monitored for up to 3 h. To monitor the stability of the radioligand–receptor complex during this extended time period, the membranes were incubated with radioligand for up to 4 h.

[6] = system: HEK-SST2 cells; assay: Dissociation/release of cell-associated [^177Lu]Lu-OPS201 by intact cells; type: cell-based, human; settings: after 4 h at 37 °C
Protocol: as §3, with “then” for “afterwards”, “under three different conditions: […] At preselected time points, the medium was removed for quantification and replaced by fresh pre-warmed (37 °C) medium (either alone or with” for “under”, “unlabelled competitor).” for “three different conditions as above.”, “All” for “All reported”

[7] = after 2 h pre-incubation at 4 °C
[8] = after 4 h of incubation at 37 °C

T1 sequence (P30874 whole entry): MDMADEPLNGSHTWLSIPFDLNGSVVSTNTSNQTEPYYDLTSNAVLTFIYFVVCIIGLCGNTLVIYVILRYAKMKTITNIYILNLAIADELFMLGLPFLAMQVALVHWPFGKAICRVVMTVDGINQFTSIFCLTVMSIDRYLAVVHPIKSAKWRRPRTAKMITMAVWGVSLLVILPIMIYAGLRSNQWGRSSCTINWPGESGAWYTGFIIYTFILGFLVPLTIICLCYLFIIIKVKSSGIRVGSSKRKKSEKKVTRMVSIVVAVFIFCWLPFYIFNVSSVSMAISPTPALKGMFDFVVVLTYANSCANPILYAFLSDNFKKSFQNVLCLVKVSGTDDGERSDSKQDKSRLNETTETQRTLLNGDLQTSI

With `C[C@@H](O)[C@H](NC(=O)[C@@H]1CSSC[C@H](NC(=O)[C@@H](Cc2ccccc2)NC(=O)CN2CCN(CC(=O)O)CCN(CC(=O)O)CCN(CC(=O)O)CC2)C(=O)N[C@@H](Cc2ccc(O)cc2)C(=O)N[C@H](Cc2c[nH]c3ccccc23)C(=O)N[C@@H](CCCCN)C(=O)N[C@@H]([C@@H](C)O)C(=O)N1)C(=O)O` [[^177Lu]Lu-DOTA-TATE, ^177Lu-oxodotreotide, metal not drawn] the internalised fraction ([1]; 30 min of incubation at 37 °C) was “more than 50%”, the “cell surface bound fraction of total added radioligand” value [1] was 2 ± 1% and the “internalised fraction of total added radioligand” value [1] was 77 ± 3%. The “cell surface binding at 4 °C” value ([2]; 4 °C) was “very low cell surface binding”, the “decrease of internalised radioligand during washout” value ([3]; after 4 h in naïve medium, 37 °C) was “only partial” and the “decrease of internalised radioligand during washout” value ([3]; after 4 h in the presence of an excess of Lu-DOTA-TATE and Lu-OPS201, 37 °C) was “nearly complete”.

In the case of `C[C@@H](O)[C@@H]1NC(=O)[C@H](CCCCN)NC(=O)[C@@H](Cc2ccc(NC(N)=O)cc2)NC(=O)[C@H](Cc2ccc(NC(=O)[C@@H]3CC(=O)NC(=O)N3)cc2)NC(=O)[C@H](NC(=O)[C@H](Cc2ccc(Cl)cc2)NC(=O)CN2CCN(CC(=O)O)CCN(CC(=O)O)CCN(CC(=O)O)CC2)CSSC[C@@H](C(=O)N[C@H](Cc2ccc(O)cc2)C(N)=O)NC1=O` [[^177Lu]Lu-OPS201, ^177Lu-satoreotide tetraxetan, metal not drawn] ({DOTA}-[Phe(4-Cl)][dC][Phe(4-NH2)](Dihydroorotyl(S))[dPhe(4-NHCONH2)]KTC[dY]-NH2; disulfide 2-7), the Bmax ([4]; HEK-SST2 cell membranes 10 µg/well, 37 °C, single-site model) is reported as 0.37 ± 0.02 nM, the Kd ([4]; HEK-SST2 cell membranes, 37 °C, single-site model) is reported as 0.15 ± 0.003 nM and the “number of binding sites recognised relative to [^177Lu]Lu-DOTA-TATE” value ([4]; saturation binding, HEK-SST2 cell membranes) is reported as “about four times more sites”. The “dissociation t1/2” value [5] was 41 min, the koff ([5]; HEK-SST2 membranes, competitor DOTA-BASS) was 0.0003 s⁻¹ and the koff ([5]; HEK-SST2 membranes, competitor Lu-OPS201) was 0.000283 s⁻¹. For the same compound, the “dissociation t1/2” value ([5]; competitor: excess DOTA-BASS) was 38 min, the “cell surface bound fraction of total added radioligand” value [1] was 46 ± 2% and the “internalised fraction of total added radioligand” value [1] was 31 ± 1%. For the same compound, the “internalised fraction of added radioligand” value [2, 7] was 7%, the “surface-bound fraction of added radioligand” value [2, 7] was 54% and the “fraction released in the medium” value ([2]; after 4 h at 37 °C, undisturbed medium) was < 5%. For the same compound, the “internalised fraction (of cell-associated activity)” value [2, 8] was 24%, the “reduction of initial surface-bound fraction” value [2, 8] was 17% and the “surface-bound fraction (of cell-associated activity)” value [2, 8] was 71%. For the same compound, the “internalised fraction (of cell-associated activity)” value ([2]; t = 0 of 37 °C incubation) was 12%, the “surface-bound fraction (of cell-associated activity)” value ([2]; t = 0 of 37 °C incubation) was 88% and the radioligand released ([6]; repeatedly refreshed naïve medium) was 40%. For the same compound, the radioligand released ([6]; washout medium with excess of unlabelled Lu-OPS201 or Lu-DOTA-TATE) was 70%.

In the case of “H-D2Nal-c(Cys-Tyr-DTrp-Lys-Val-Cys)-Thr-NH2 [lanreotide, reference compound]”, the “displacement of specifically bound [^177Lu]Lu-OPS201 by the unlabelled agonist” value ([5]; high concentration (1000-fold excess) of competitor, HEK-SST2 membranes) is reported as “no more than 30%”.
